Test results as given in patent US8987257B2 (Novartis AG, priority 2011, dated 2015).

Columns and labels:
[1] = molecular target: PI3Kα (Homo sapiens (Human), UniProt P42336); test: Test 1: PI3 Kinase Assay (PI3K KinaseGlo assay); assay type: biochemical; details: 1 μM ATP
Description: L-a-phosphatidylinositol (PI), provided as 10 mg/ml solution in methanol, was transferred into a glass tube and dried under nitrogen beam. It was then resuspended in 3% OctylGlucoside (OG) by vortexing and stored at 4° C. The KinaseGlo Luminescent Kinase Assay (Promega, Madison/WI, USA) is a homogeneous HTS method of measuring kinase activity by quantifying the amount of ATP remaining in solution following a kinase reaction.
Kinase reactions were started by addition of 5 μl of ATP-mix containing in a final volume 10 μL 10 mM TRIS-HCl pH 7.5, 3 mM MgCl2, 50 mM NaCl, 0.05% CHAPS, 1 mM DTT and 1 μM ATP, and occurred at room temperature.
The PI3Kα construct is a fusion of p85α iSH2 domain and the respective p110 isoform. The p85α fragment and p110 isoform gene were generated by PCR from first strand cDNA generated by RT-PCR from commercial RNA from placenta, testis and brain as described below.
The p85 fragment was derived from plasmid p1661-2 digested with Nhe/Spe. The p110α fragment derived from its clone was verified by sequencing and used in LR410 as a SpeI/HindIII fragment. For the generation of the baculovirus expression vector LR410 the gateway LR reaction to transfer the insert into the Gateway adapted pBlueBac4.5 (Invitrogen) vector was used. The cloning vector pBlueBac4.5 (Invitrogen) was digested with Nhe/HindIII. […] The two reverse primers overlap and incorporate a 12×Gly linker and the N-terminal sequence of the p110α gene to the SpeI site. The PCR fragment was cloned into pCR2.1 TOPO (Invitrogen). Of the resulting clones, p1661-2 was determined to be correct by sequencing. This plasmid was digested with Nhe and SpeI and the resulting fragment was gel-isolated and purified for sub-cloning.
PI3Kα was purified in two chromatographic steps: immobilized metal affinity chromatography (IMAC) on a Ni sepharose resin (GE Healthcare) and gel filtration utilizing a Superdex 200 26/60 column (GE Healthcare). All buffers were chilled to 4° C. and lysis was performed chilled on ice. Column fractionation was performed at room temperature.

[2] = system: constitutively active mTOR; test: Test 3: TSC Assay (high content imaging of phospho-S6 (240/244) in TSC1−/− MEFs); assay type: cell-based; details: Mus musculus, pS6 240/244 staining, 2 hrs compound treatment
Description: This assay generates IC50 values for compounds that inhibit mTOR.
Quantification of pS6 Staining Using High-Content Imaging and Analysis
Day 0: Cell plating. Subconfluent TSC1−/− MEFs are harvested by trypsinization, resuspended in growth medium, and counted. […] The plates are briefly spun down and placed at 37° C. and 5% CO2. • 2. Day 1: Cell plates are washed into a PBS starve solution (contains glucose, sodium bicarbonate, HEPES and phenol red) using a 384-well plate washer. The wash protocol aspirates the volume down to 30 μL/well before dispensing 60 μL/well of the PBS starve solution. Aspiration and dispensing steps are repeated 8 times and a final volume of 30 μL/well is left. The cell plates are placed at 37° C. and 5% CO2 for 2 hrs. • Compound treatment. Compound dose responses are prepared in DMSO. The dose responses are then diluted 1:50 in medium. 10 ul of the diluted compound is added to 30 ul of cells, yielding a final 1:200 dilution of the original compound and final of 0.5% DMSO. Compound-treatments are performed in triplicates. The plates are placed at 37° C. and 5% CO2 for 2 hrs. Cells are then fixed by adding 10 μL/well 5× concentrated Mirsky's fixative. […] The cell plates are briefly spun down and incubated for 1 h at room temperature. Cells are then washed using a 384-well plate washer using a protocol which aspirates the volume down to 30 μL/well before dispensing 60 μL/well 1×TBS. Aspiration and dispensing steps are repeated 8 times and then an additional aspiration step leaves a final volume of 10 μL/well. Block buffer (1×TBS+0.1% Triton X-100+0.1% BSA) is then added at 25 μL/well and the plates are incubated at room temperature for 30 min. The cell plates are then aspirated down to 10 μL/well. […] Plates are incubated overnight at 4° C. • 3. […] The bottom of the plate is cleaned with 70% ethanol and then imaged using the InCell 1000 automated epifluorescence microscope. […] Cy5 images are acquired using an excitation of 620 nm (Chroma 620—60× filter), an emission of 700 nm (Chroma HQ700—75M filter) and an exposure time of 200 ms. A double band pass mirror is used for all images. • 4. Image analysis: The InCell Analysis software is used to analyze the images using the Dual Object algorithm. […] The Cy5 fluorescence intensity inside the collar is measured (cell intensity) and results are reported on an “Average per cell” basis. • 5. IC50 calculation: IC50s are calculated by plotting the cell intensity values on the y-axis with dose response values on the x-axis. IC50 values represent compound potency against mTOR.

[3] = molecular target: FRAP1/mTOR (Homo sapiens (Human), UniProt P42345); test: Test 2: mTOR Biochemical Assay (FRAP1/mTOR TR-FRET tracer assay); assay type: binding; details: mTOR Kinase Tracer 314
Description: IC50s for mTOR interacting compounds were assessed using the FRAP1/mTOR TR-FRET tracer assay (Invitrogen by Life Technologies). […] Compounds were serially diluted in DMSO (12-point, 4× dilution factor) and 1 μL of diluted compound was then added to each well and mixed by pipetting using a Biomek FX (Beckman Coulter).

[4] = system: H4 mCherry-GFP-LC3 cells; test: Test 4: Autophagy Assay (mCherry-GFP-LC3 reporter, high-content imaging); assay type: cell-based; details: Homo sapiens, 16-18 h
Excerpt: Autophagy is a catabolic pathway that degrades bulk cytosol in lysosomal compartments enabling amino acids and fatty acids to be recycled. […] To quantify autophagy induction by mTOR inhibitors, we use a mCherry-GFP-LC3 reporter which is amenable to retroviral delivery into mammalian cells, stable expression and analysis by fluorescence microscopy.
Described hereinafter is an imaging protocol and image recognition algorithm to visualize and measure changes in the autophagic pathway.
Quantification of Autophagy Using High-Content Imaging and Analysis
• 1. Day 0: Cell plating. Subconfluent H4 mCherry-GFP-LC3 cells are harvested by trypsinization, resuspended in growth medium, and counted (H4 cells: Human neuroglioma cell line (ATCC)). A cell suspension of 66′000 cells/mL is prepared and 30 μL are added into the wells of a 384-well plate using an electronic multichannel pipette. […] The cell plates are briefly spun down and placed at 37° C. and 5% CO2. • 2. Day 1: Compound treatment. Compound dose responses are prepared in DMSO. The dose responses are then diluted 1:50 in medium. 10 ul of the diluted compound is added to 30 ul of cells, yielding a final 1:200 dilution of the original compound and final of 0.5% DMSO. Compound-treatments are performed in triplicates. The 384-well plates are placed at 37° C. and 5% CO2. Compound treatment is performed for 16-18 h (see Note 1). • 3. Day 2: Cell fixation. Cells are fixed by adding 10 μL/well 5× concentrated Mirsky's fixative supplemented with 25 μg/mL Hoechst33342. […] The 384-well plate is briefly spun down and incubated for 1 h at room temperature. Cells are then washed using a 384-well plate washer using a protocol which aspirates the volume down to 10 μL/well before dispensing 100 μL/well 1×TBS. Aspiration and dispensing steps are repeated 4 times and a final volume of 100 μL/well is left. The plate is sealed using an adhesive PCR foil. • 4. Imaging. The bottom of the plate is cleaned with 70% ethanol and then imaged using the InCell 1000 automated epifluorescence microscope. 20× magnification is used and 4 different areas (fields) are imaged per well, this typically captures a total of around 400 cells per well. Hoechst33342 images are acquired using an excitation of 360 nm (D360—40× filter), an emission of 460 nm (HQ460—40M filter) and an exposure time of 150 ms. GFP images are acquired using an excitation of 475 nm (S47520× filter), an emission of 535 nm (HQ535—50M filter) and an exposure time of 1 s. mCherry images are acquired using an excitation of 535 nm (HQ535—50× filter), an emission of 620 nm (HQ620—60M filter) and an exposure time of 1 s. A quadruple band pass mirror is used for all images. • 5. Image analysis. The InCell Analysis software is used to analyze the images using the Multi Target Analysis algorithm. First, nuclei are detected in the Hoechst33342 image using top-hat segmentation and a minimal nuclear area of 50 μm^2. Cells are defined using a collar of 10 μm around the nuclei. Second, puncta (organelles) are identified in the mCherry image inside the cells using multi-top-hat segmentation. Third, the mask of the mCherry puncta is transferred onto the GFP image. Fourth, the GFP fluorescence intensity inside the mCherry puncta mask is measured (reference intensity). • 6. The ‘organelles’ parameter reflects mCherry-positive puncta of the mCherry-GFP-LC3 reporter and is used to calculate ‘LC3 puncta/cell’. For this purpose, the number of organelles is calculated per cell and averaged over all the cells in a given well (average per cell basis). mCherry-positive LC3 puncta numbers (y-axis) are plotted against the compound dose response values (x-axis) and EC50 values are calculated for each compound. EC50 values represent compound potency in terms of autophagy activation (e.g. increase in mCherry-positive LC3 puncta count). Notes • 1. Autophagy-modulation and redistribution of mCherry-GFP-LC3 can be already observed after a compound treatment time of 3-4 h. […]

[5] = Table 4 (unit inferred), mCherry-positive LC3 puncta/cell
[6] = Table 1, mCherry-positive LC3 puncta/cell

Sequence of PI3Kα (P42336 other isoform, or with tags, fused parts or gaps): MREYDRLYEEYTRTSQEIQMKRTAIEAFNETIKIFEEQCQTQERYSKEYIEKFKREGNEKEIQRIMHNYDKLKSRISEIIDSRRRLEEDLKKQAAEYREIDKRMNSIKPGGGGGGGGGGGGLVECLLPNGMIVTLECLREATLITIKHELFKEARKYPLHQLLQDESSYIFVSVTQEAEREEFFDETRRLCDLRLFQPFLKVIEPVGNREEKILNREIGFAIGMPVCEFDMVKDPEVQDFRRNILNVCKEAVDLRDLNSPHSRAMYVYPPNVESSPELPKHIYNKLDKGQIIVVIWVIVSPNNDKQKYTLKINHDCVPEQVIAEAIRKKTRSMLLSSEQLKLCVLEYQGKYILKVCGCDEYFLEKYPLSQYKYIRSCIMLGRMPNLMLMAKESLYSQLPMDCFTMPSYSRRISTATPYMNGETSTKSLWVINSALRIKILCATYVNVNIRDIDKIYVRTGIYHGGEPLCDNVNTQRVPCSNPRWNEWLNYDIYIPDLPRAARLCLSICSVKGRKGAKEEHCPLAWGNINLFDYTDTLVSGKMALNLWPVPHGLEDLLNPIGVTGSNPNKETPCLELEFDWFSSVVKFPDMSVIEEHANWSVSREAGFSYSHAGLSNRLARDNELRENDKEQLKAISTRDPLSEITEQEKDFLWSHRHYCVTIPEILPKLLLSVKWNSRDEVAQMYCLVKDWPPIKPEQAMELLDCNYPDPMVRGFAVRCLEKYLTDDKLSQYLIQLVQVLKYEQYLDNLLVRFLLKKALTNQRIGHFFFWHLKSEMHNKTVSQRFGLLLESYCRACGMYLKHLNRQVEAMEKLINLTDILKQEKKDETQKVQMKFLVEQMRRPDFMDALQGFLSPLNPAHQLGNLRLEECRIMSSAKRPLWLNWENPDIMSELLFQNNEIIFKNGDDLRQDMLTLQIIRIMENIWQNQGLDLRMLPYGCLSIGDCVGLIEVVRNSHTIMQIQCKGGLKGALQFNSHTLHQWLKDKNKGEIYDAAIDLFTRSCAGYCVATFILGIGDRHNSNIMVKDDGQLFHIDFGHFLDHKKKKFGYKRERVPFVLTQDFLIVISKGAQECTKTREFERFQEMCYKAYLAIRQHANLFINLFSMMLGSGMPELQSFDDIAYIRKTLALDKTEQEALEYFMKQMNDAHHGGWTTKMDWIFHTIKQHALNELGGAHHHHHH
Sequence of FRAP1/mTOR (P42345 1360-2549): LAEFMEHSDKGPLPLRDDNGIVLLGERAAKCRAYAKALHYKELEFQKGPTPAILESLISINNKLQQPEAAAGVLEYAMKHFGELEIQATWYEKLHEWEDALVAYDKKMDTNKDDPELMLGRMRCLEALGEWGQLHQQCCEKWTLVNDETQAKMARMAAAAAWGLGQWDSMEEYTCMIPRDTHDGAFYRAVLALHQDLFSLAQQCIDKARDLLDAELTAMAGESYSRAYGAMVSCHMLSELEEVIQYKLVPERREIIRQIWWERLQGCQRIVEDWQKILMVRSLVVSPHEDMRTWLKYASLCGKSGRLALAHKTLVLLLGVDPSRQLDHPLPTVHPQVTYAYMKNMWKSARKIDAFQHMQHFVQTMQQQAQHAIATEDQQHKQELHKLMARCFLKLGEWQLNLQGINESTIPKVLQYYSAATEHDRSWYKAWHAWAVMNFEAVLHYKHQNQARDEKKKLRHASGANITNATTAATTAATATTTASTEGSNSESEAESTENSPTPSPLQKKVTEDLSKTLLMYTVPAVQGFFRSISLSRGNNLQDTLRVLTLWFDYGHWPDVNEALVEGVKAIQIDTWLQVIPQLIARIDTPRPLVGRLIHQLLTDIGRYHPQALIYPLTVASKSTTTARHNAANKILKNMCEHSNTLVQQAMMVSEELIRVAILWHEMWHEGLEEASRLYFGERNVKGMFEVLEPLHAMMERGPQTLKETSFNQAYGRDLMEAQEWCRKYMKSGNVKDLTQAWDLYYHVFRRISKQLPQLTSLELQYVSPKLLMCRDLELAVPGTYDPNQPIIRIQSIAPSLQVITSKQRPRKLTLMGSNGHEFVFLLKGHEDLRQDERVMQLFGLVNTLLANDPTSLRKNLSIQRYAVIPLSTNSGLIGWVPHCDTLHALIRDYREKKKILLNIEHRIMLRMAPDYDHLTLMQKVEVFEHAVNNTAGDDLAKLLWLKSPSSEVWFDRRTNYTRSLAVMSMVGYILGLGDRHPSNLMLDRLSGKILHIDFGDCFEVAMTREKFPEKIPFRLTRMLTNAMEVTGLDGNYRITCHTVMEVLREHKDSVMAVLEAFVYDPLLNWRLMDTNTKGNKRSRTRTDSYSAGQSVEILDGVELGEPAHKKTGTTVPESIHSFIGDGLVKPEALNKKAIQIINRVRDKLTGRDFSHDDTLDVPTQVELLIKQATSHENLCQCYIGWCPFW

Compound	IC50 [1] [nM]	IC50 [2] [nM]	IC50 [3] [nM]	EC50 [4, 5] [nM]	EC50 [4, 6] [nM]
OCc1cccc(-c2nc3c(N4CCOCC4)nc(N4CCOCC4)nc3[nH]2)c1 [Example 37, [3-(2,6-Di-morpholin-4-yl-9H-purin-8-yl)-phenyl]-methanol]	10	620			
OCc1ccccc1-c1nc2c(N3CCOCC3)nc(N3CCOCC3)nc2[nH]1 [Example 35, [2-(2,6-Di-morpholin-4-yl-9H-purin-8-yl)-phenyl]-methanol]	5870	4010			
CC1(C)COCCN1c1nc(N2CCOCC2)nc2[nH]c(-c3ccc4cc[nH]c4c3)nc12 [Example 39, 6-(3,3-Dimethyl-morpholin-4-yl)-8-(1H-indol-6-yl)-2-morpholin-4-yl-9H-purine]	2530	146	160	2320	
C[C@H]1COCCN1c1nc(N2CCOCC2)nc2[nH]c(-c3ccc4cc[nH]c4c3)nc12 [Example 24, 8-(1H-Indol-6-yl)-6-((S)-3-methyl-morpholin-4-yl)-2-morpholin-4-yl-9H-purine]	8540	632	85		
c1cc(-c2nc3c(N4CC5CCC(C4)O5)nc(N4CCOCC4)nc3[nH]2)c2cc[nH]c2c1 [Example 8, 8-(1H-Indol-4-yl)-2-morpholin-4-yl-6-(8-oxa-3-aza-bicyclo[3.2.1]oct-3-yl)-9H-purine]	> 9100	127	41		731
C[C@@H]1COCCN1c1nc(N2CCOC[C@@H]2C)c2nc(-c3cccc4[nH]ccc34)[nH]c2n1 [Example 18, 8-(1H-Indol-4-yl)-2-((R)-3-methyl-morpholin-4-yl)-6-((S)-3-methyl-morpholin-4-yl)-9H-purine]	5050	70	46		2500
C[C@H]1COCCN1c1nc(N2CCOCC2)nc2[nH]c(-c3cccc4[nH]ccc34)nc12 [Example 23, 8-(1H-Indol-4-yl)-6-((S)-3-methyl-morpholin-4-yl)-2-morpholin-4-yl-9H-purine]	5510	138	14		1610
C[C@H]1COCCN1c1nc(N2CCC(F)(F)CC2)nc2[nH]c(-c3cccc4[nH]ccc34)nc12 [Example 5, 2-(4,4-Difluoro-piperidin-1-yl)-8-(1H-indol-4-yl)-6-((S)-3-methyl-morpholin-4-yl)-9H-purine]	> 9100	551	150		2590
COc1cc(CO)cc(-c2nc3c(N4CCOC[C@@H]4C)nc(N4CCOC[C@@H]4C)nc3[nH]2)c1 [Example 17, {3-[2,6-Bis-((S)-3-methyl-morpholin-4-yl)-9H-purin-8-yl]-5-methoxy-phenyl}-methanol]	400	1510	399		3190
Oc1cccc(-c2cc3c(N4CCOCC4)nc(N4CCOCC4)nc3[nH]2)c1 [Example 2, 3-(2,4-Di-morpholin-4-yl-7H-pyrrolo[2,3-d]pyrimidin-6-yl)-phenol]	1060	300	40		363
C[C@@H]1COCCN1c1nc(N2CCOC[C@@H]2C)nc2[nH]c(-c3ccc4cc[nH]c4c3)nc12 [Example 44, 8-(1H-Indol-6-yl)-2-((S)-3-methyl-morpholin-4-yl)-6-((R)-3-methyl-morpholin-4-yl)-9H-purine]	5950	388	140	395	
c1cc(-c2cc3c(N4CCOCC4)nc(N4CCOCC4)nc3[nH]2)c2cc[nH]c2c1 [Example 56, 6-(1H-Indol-4-yl)-2,4-di-morpholin-4-yl-7H-pyrrolo[2,3-d]pyrimidine]	2010	174	2390	3650	
C[C@@H]1COCCN1c1nc(N2CCOC[C@@H]2C)nc2[nH]c(-c3cccc4[nH]ccc34)nc12 [Example 43, 8-(1H-Indol-4-yl)-2-((S)-3-methyl-morpholin-4-yl)-6-((R)-3-methyl-morpholin-4-yl)-9H-purine]	1010	39	40	160	
CC(=O)Nc1cccc(-c2nc3c(N4CCOCC4)nc(N4CCOCC4)nc3[nH]2)c1 [Example 30, N-[3-(2,6-Di-morpholin-4-yl-9H-purin-8-yl)-phenyl]-acetamide]	3010	1520	1450		> 2000
COC1CCN(c2nc(N3CCOCC3)c3nc(-c4cccc5[nH]ccc45)[nH]c3n2)CC1 [Example 25, 8-(1H-Indol-4-yl)-2-(4-methoxy-piperidin-1-yl)-6-morpholin-4-yl-9H-purine]	2070	452	172		> 700
C[C@H]1COCCN1c1nc(N2CCOCC2)nc2[nH]c(-c3ccc(F)c(CO)c3)nc12 [Example 4, {2-Fluoro-5-[6-((S)-3-methyl-morpholin-4-yl)-2-morpholin-4-yl-9H-purin-8-yl]-phenyl}-methanol]	1800	1860	1420		1550
COc1ccc(-c2nc3c(N4CCOC[C@@H]4C)nc(N4CCOC[C@@H]4C)nc3[nH]2)cc1CO [Example 7, {5-[2,6-Bis-((S)-3-methyl-morpholin-4-yl)-9H-purin-8-yl]-2-methoxy-phenyl}-methanol]	2540	455			
C[C@H]1COCCN1c1nc(N2CCOC[C@@H]2C)c2nc(-c3ccc4[nH]c(=O)[nH]c4c3)[nH]c2n1 [Example 6, 5-[2,6-Bis-((S)-3-methyl-morpholin-4-yl)-9H-purin-8-yl]-1,3-dihydro-benzoimidazol-2-one]	> 9100	1450	30		
C[C@@H]1CN(c2nc(N3CCOCC3)c3nc(-c4ccccc4CO)[nH]c3n2)C[C@H](C)O1 [Example 34, {2-[2-((2S,6R)-2,6-Dimethyl-morpholin-4-yl)-6-morpholin-4-yl-9H-purin-8-yl]-phenyl}-methanol]	> 9100	8000			
Oc1cccc(-c2nc3c(N4CCOCC4)nc(N4CCOCC4)nc3[nH]2)c1 [Example 36, 3-(2,6-Di-morpholin-4-yl-9H-purin-8-yl)-phenol]	20	73			
Oc1ccccc1-c1nc2c(N3CCOCC3)nc(N3CCOCC3)nc2[nH]1 [Example 38, 2-(2,6-Di-morpholin-4-yl-9H-purin-8-yl)-phenol]	480	> 50000			
C[C@@H]1CN(c2nc(N3CCOCC3)c3nc(-c4cccc(N)c4)[nH]c3n2)C[C@H](C)O1 [Example 32, 3-[2-((2S,6R)-2,6-Dimethyl-morpholin-4-yl)-6-morpholin-4-yl-9H-purin-8-yl]-phenylamine]	2520	1040	1040		
C[C@@H]1CN(c2nc(N3CCOCC3)c3nc(-c4cccc(O)c4)[nH]c3n2)C[C@H](C)O1 [Example 1, 3-[2-((2S,6R)-2,6-Dimethyl-morpholin-4-yl)-6-morpholin-4-yl-9H-purin-8-yl]-phenol]	20	118			
Cc1cc2c(-c3nc4c(N5CCOCC5)nc(N5CCOCC5)nc4[nH]3)cccc2[nH]1 [Example 31, 8-(2-Methyl-1H-indol-4-yl)-2,6-di-morpholin-4-yl-9H-purine]	590	315			
